Entries after “also recorded” stand apart in the source; their conditions may differ. Read-outs that look alike come from different tables or passages of the source.
Experiments:
B16-F10-LacZ cells = test: B16 melanoma lung nodule model; assay type: in vivo, C57BL/6 mice; details: combination therapy, FIG. 4 legend
Procedure: Sorafenib Enhances JX-594 Activity Against Murine B16 Melanoma Lung Nodules in Vivo: The combination of JX-594 and sorafenib was tested in an immunocompentent murine model of B16 melanoma tumors. C57BL/6 mice were injected with 3×10^5 B16-F10-LacZ cells IV and treated with Sorafenib alone (HD: 10 mg/kg, LD: 50 μg/kg p.o. daily for 2 weeks), JX594 alone (10^7 pfu IV 3 times per week for 1 week), or in combination (LD or HD sorafenib prior to JX-594 IV) (n=5 per group)(FIG. 4, top panel). At the end of treatment, mice were sacrificed and lungs were fixed and stained to detect B16 surface nodules (n=5 per group). The mean number of tumor nodules at the end of study is shown for each group (FIG. 4).

[1] = system: JX-594 replication in SNU423, SNU398, SNU475, SNU449, SNU387 and U2OS; assay type: cell-based, vaccinia virus
hepatocellular carcinoma [2] = test: Phase 2 trial, IV JX-594 then IT JX-594 then sorafenib in HCC; assay type: in vivo, human; details: Patient JX16-HCC-03, 10 days after sorafenib initiation, after one IV and two IT doses of JX-594
Procedure: JX-594 Treatment Procedure, Patients Treated by IV JX-594 Followed by IT JX-594 Followed by Sorafenib: Patients with unresectable HCC received […] of JX-594 levels (10^9 pfu). For the first dose (Day 1), JX-594 was administred by intravenous infusion over 60 minutes. For the second and third doses (Day 8 and Day 22), JX-594 was administered via imaging-guided intratumoral injection using a multi-pronged Quadrafuse injection needle in roughly spherical tumors, or by a 21-gauge PEIT (percutaneous ethanol injection, multi-pore; HAKKO Medicals; Tokyo, Japan) needle in irregularly-shaped tumors. Starting on Day 25, patients imitated oral sorafenib therapy (400 mg twice daily p.o.). Patients with viable tumor tissue received a Week 12 IT injection of JX-594 (sorafenib treatment was temporarily discontinued 2-3 days before, during and 4-5 days after this booster injection). Imaging (CT, DECE MIR and/or PET-CT) was performed at baseline, Day 25, Week 6 and/or Week 12 to assess response.
Example JX16-HCC-03, IV+IT+IT+Sorafenib Patient: Patient JX16-HCC-03 had hepatocellular carcinoma and was enrolled in a Phase 2 Clinical Trial of JX-594. After completing JX-594 administration (one intravenous and two intratumoral doses) patient received sorafenib.

[3] = system: JX-594 replication in A2780 (ovarian) cells; assay type: cell-based, vaccinia virus
[4] = system: JX-594 replication in HepG2 (HCC) cells; assay type: cell-based, vaccinia virus
[5] = system: HepG2 (human HCC line) tumors; test: HepG2 vascularity study, CD31 vessel counts; assay type: in vivo, nude mice
Source text: FIG. 6 Anti-vascular effects of JX-594 followed by sorafenib. Top panels show study design of a preclinical study of JX-594 followed by Sorafenib in HepG2 xenograft model. […] Error bars are standard error.
Experimental Methods, Vascularity Study: The study followed longer term effects on vascularity and assessed the efficacy of JX-594+/−Sorafenib in the HepG2 model. HepG2 (human HCC line) tumors were implanted subcutaneously in nude mice. Animals were randomized to seven treatment groups (n=5 per group) to test agents alone, and in combination. Groups were treated with JX-594 (10^6 pfu intratumorally, D1 and D8) and/or Sorafenib (400 μg i.p., daily D15-D29) or PBS (control) on the schedule detailed in (FIG. 6). Tumors were measured using calipers twice weekly. Serum samples were collected on D1, D8, D15, D22 and D29 for measurement of VEGF and GM-CSF levels. Mice were euthanized on D22 or D35. Prior to euthanization, mice were injected with fluorescent microspheres to allow for visualization of tumor perfusion. […]
Results: Vessels were counted in CD31-stained OCT tumor sections; the average number of vessels in 3 fields of 200× magnification are presented in (FIG. 6).

hepatocellular carcinoma [6] = test: Sorafenib therapy following JX-594 in HCC patients (DCE-MRI, Choi); assay type: in vivo, human
Procedure: Sorafenib Therapy and Tumor Response Assessment Following JX-594: Patients completed the IT clinical trial of JX-594 after 8 weeks on study. Some patients (Patients 1702, 1705, 1002, 1712, 1713) went on to receive standard sorafenib treatment (400 mg twice daily p.o.). Tumors in these patients were followed by DCE-MRI imaging using the same procedures that were used to assess response to JX-594 treatment.
Tumor Vascularity and Response Assessment: DCE MRI (dynamic contrast-enhanced magnetic resonance imaging) was performed at screening (baseline), on Day 5 (optional) and Week 8. For patients going on to Sorafenib, DCE MRI was performed 4 and/or 8 weeks after the start of Sorafenib treatment. DCE MRI assesses tumor size, vascularity and necrosis. The screening/baseline DCE MRI was used as the reference from which to determine time to progression and response rates. […] Tumor progression status and tumor response(s) to JX-594 were assessed radiologically by modified RECIST and modified Choi criteria at the Week 8 visit. Independent review of the images was made by radiologist(s) with expertise in evaluating hepatocellular carcinoma on MRI scans. For evaluation of the intra-hepatic tumors, the proportion of subjects with an objective “complete” or “partial” anti-tumor response was determined based on modified RECIST, and a response as measured by Modified Choi criteria (defined as a ≧10% decrease in the sum of the longest diameter and/or ≧15% decrease in the average tumor signal intensity at MRI).
Tumor Response by Modified Choi Criteria: The Choi response criteria takes into consideration changes in tumor density in addition to tumor diameter (versus RECIST) and data supporting its utility has been published (Choi et al. 2004). Early studies have shown that liver tumors treated with JX-594 can develop significant internal necrosis without a concomitant decrease in size, as has been described in gastrointestinal stromal tumors by Choi et al. (2004). Therefore, intra-hepatic tumors were also measured and response evaluated using a Modified Choi Criteria. The modification of the criteria is necessary as DCE MRI was the imaging modality employed for measuring tumor response. […] The screening/baseline DCE MRI was used as the reference from which to determine response. A response by Modified Choi criteria was defined as a ≧10% decrease in the sum of the longest diameter of the injected tumor(s) and/or ≧15% decrease in the average injected tumor signal intensity on MRI. The average MRI signal intensity (SI) was measured as a percentage of tumor.

hepatocellular carcinoma [7] = details: cited from earlier work; for mean tumor necrosis (MRI): sorafenib-only trial
[8] = system: JX-594 replication in PLC/PRF/5 human HCC cell line; test: JX-594 burst size / replication with sorafenib in PLC/PRF/5 cells; assay type: cell-based, vaccinia virus
[9] = system: CT26 colorectal tumor cells; test: CT26 subcutaneous colorectal tumor model; assay type: in vivo, Balb/c mice; details: combination therapy, FIG. 3 legend
Procedure: FIG. 3. […] Kaplan-Meier survival curves are shown for each condition in the middle panel. Effects on tumor volume are shown in the lower panel.
Sorafenib enhances JX-594 activity against murine CT26 primary tumors in vivo: The combination of JX-594 and sorafenib was tested in an immunocompentent murine model of subcutaneously implanted CT26 colorectal tumor cells. Balb/c mice were injected with 3×10^5 CT26 cells subcutaneously and after 11 days, treatment commenced with Sorafenib alone (10 mg/kg p.o. daily for 2 weeks), JX594 alone (10^8 pfu IV 3 times per week for 1 week), or in combination (JX594 prior to Sorafenib, or Sorafenib prior to JX594) (n=4 per group) (FIG. 3, upper panel). Control animals received PBS only. For this experiment, a version of JX-594 was used that expresses murine GM-CSF. Tumors were measured twice weekly until endpoint. Surviving proportions of each study group at each timepoint post treatment are shown (FIG. 3, middle panel). The mean tumor volumes of each study group at each timepoint post-treatment are shown (FIG. 3, lower panel).

hepatocellular carcinoma [10] = test: Sorafenib-only local control group assessed by Choi criteria; assay type: in vivo, human; details: no JX-594, 26 total, 15 assessed, both responders also had radiation therapy
Procedure: Example Sorafenib Only “Control Group” (Figure Included): Historically, the RECIST response rate to sorafenib alone is 1-2% (Llovet et al., 2008; Cheng et al., 2009). For a local control group assessed by Choi criteria, HCC patients that had not received JX-594, but had received sorafenib, were assessed for Choi response. In the hospital where 4 of the 5 JX-594 patients were treated, 26 other patients had received sorafenib in the same period. 7 patients died prior to response assessment, and 15 patients were assessed for Choi response. […] It should be noted that both of these patients had received radiation therapy in conjunction with sorafenib therapy.

murine HCC model = assay type: in vivo

For CNC(=O)c1cc(Oc2ccc(NC(=O)Nc3ccc(Cl)c(C(F)(F)F)c3)cc2)ccn1 [Sorafenib], the “JX-594 efficacy in murine B16 metastatic melanoma model” value (B16-F10-LacZ cells) was “enhances JX-594 efficacy”, the JX-594 replication [1] was “inhibited JX-594 replication” and the “DCE-MRI perfusion of non-injected extrahepatic tumor” value (hepatocellular carcinoma [2]) was “loss of perfusion”. The “JX-594 plaque formation and replication (burst)” value [3] was “can inhibit viral growth and replication; also recorded: Inhibits JX-594 Plaque Formation and Replication”, the “JX-594 plaque formation and replication (burst)” value [4] was “can inhibit viral growth and replication; also recorded: Inhibits JX-594 Plaque Formation and Replication” and the “number of vessels in CD31-stained tumor sections” value ([5]; Sorafenib alone 400 μg i.p. daily D15-D29, Day 29) was “transient decrease in the number of vessels”. The “number of vessels in CD31-stained tumor sections” value ([5]; Sorafenib alone, Day 35) was “vessel counts increase again”, the “DCE MRI finding after initiation of Sorafenib” value (hepatocellular carcinoma [6]; Patient 1702, after three IT doses JX-594, 4 and 8 weeks of Sorafenib (200 mg twice daily p.o.)) was “acute tumor necrosis” and the “DCE MRI finding after initiation of Sorafenib” value (hepatocellular carcinoma [6]; Patient 1705, after JX-594, 4 weeks of Sorafenib 400 mg twice daily p.o.) was “acute tumor necrosis”. For the same compound, the “DCE-MRI finding after initiation of Sorafenib” value (hepatocellular carcinoma [6]; Patient 1712, after JX-594, 4 weeks of Sorafenib 400 mg twice daily p.o.) was “acute tumor necrosis”, the “tumor necrosis and vascular shutdown with adjuvant sorafenib” value (hepatocellular carcinoma [6]; sorafenib after the Week 8 assessment, patients pre-treated with JX-594) was “dramatic and durable tumor necrosis and vascular shutdown in two patients; also recorded: dramatic and durable tumor necrosis and vascular shutdown in at least three patients” and the RECIST response rate (hepatocellular carcinoma [7]; sorafenib alone, historical (Llovet et al., 2008; Cheng et al., 2009)) was 1-2%. For the same compound, the “mean tumor necrosis (MRI)” value (hepatocellular carcinoma [7]; after several courses of treatment (Abou-Alfa et al., 2006)) was 27%, the “mean tumor necrosis (MRI)” value (hepatocellular carcinoma [7]; at baseline (Abou-Alfa et al., 2006)) was 9.8% and the JX-594 replication ([8]; 10 μM sorafenib, various MOI, 24 hours infection, plaque assay on Vero cells) was “inhibited”. For the same compound, the burst size decreased ([8]; Sorafenib 10 μM added 2 hrs prior to, during or 2 hrs after JX-594 infection, PLC/PRF/5) was “up to 100 fold”, the “JX-594 efficacy against CT26 subcutaneous solid tumors” value [9] was “enhances JX-594 efficacy” and the “patients with a Choi+ response” value (hepatocellular carcinoma [10]) was 2 patients. The angiogenesis (murine HCC model; adjuvant sorafenib after JX-594) was “inhibited angiogenesis” and the anti-tumoral efficacy (murine HCC model; adjuvant sorafenib after JX-594, versus either agent alone) was “significantly improved anti-tumoral efficacy over either agent alone”.
